Test system: human myeloma cell line MM.1S
Assay: SILAC acetylated-lysine peptide profiling, HDAC inhibitor vs DMSO (light/heavy ratio)
Type: cell-based
Description: An embodiment of the invention comprises utilizing the SILAC method in order to quantitate changes in protein expression between two or more populations of cells. The SILAC method is a technique based on mass spectrometry that detects differences in protein abundance among samples using non-radioactive isotopic labeling. The SILAC method is known in the art, and described in detail in Ong et al., “Stable Isotope Labeling by Amino Acids in Cell Culture, SILAC, as a Simple and Accurate Approach to Expression Proteomics”, Molecular & Cellular Proteomics, vol. 1, pp. 376-386 (2002), which is incorporated herein by reference in its entirety.
Briefly, the SILAC method involves growing two populations of cells in cell culture. The first population of cells is grown in growth media containing normal amino acids (“normal media”). The second population of cells is grown in media lacking a standard essential amino acid (such as lysine), but is then supplemented with a non-radioactive, isotopically labeled form of that essential amino acid (such as lysine labeled with ^13C atoms, rather than normal ^12C atoms), which is called “heavy media”. When the two populations of cells are each growing in the medium, they incorporate the amino acids into all of their proteins. The growth of cells maintained in the heavy media is no different from that in normal media. All peptides containing the heavy amino acids are heavier than their normal counterparts. The cells from each of the two populations of cells are lysed. The lysates from each of the two cell populations are then combined. The combined cell lysates are then analyzed by mass spectrometry. Pairs of chemically identical peptides of different stable isotope composition can be differentiated in a mass spectrometer due to their difference in mass. The ratio of peak intensities in the mass spectrum for such peptide pairs reflects the abundance ratio for the two proteins.
This example describes SILAC studies that were performed to compare the effects of three different HDAC inhibitors (Compound A, Compound B, and tubastatin A) to a control on a human multiple myeloma cell line. The HDAC inhibitors were also compared amongst themselves to determine differences in their effects.
A human myeloma cell line MM.1S was grown using either ^12C (light) or ^13C (heavy) lysine containing culture medium. The “heavy” cells were treated with DMSO as the control, and the “light” cells were treated with a single HDAC inhibitor at 37° C. for 6 hours. The heavy and light cells were lysed, and the lysates were mixed in 1:1 ratio and digested with the protease trypsin. The acetylated lysine containing peptides (due to the action of the HDAC inhibitor) in the digested peptide pool were captured by a non-specific anti-acetylated lysine antibody cocktail (the antibodies identify both light and heavy acetylated peptides), and subjected to mass spectrometry analysis in order to identify thousands of individual peptides.
Thousands of peptides were identified in pairs (^12C and ^13C) due to their known mass differences. The amino acid sequence and quantitative ratio (Light/Heavy) of a given peptide in two differentially treated cell lysates were then determined and annotated with their possible protein (gene) sources.
As stated above, three HDAC inhibitors (Compound A, Compound B, and Tubastatin A) were used. Thus, the SILAC method was performed three times, with a different HDAC inhibitor compared to a control each time. Accordingly, there are three pairs of quantitative data in the table below, i.e., Compound A:DMSO, Compound B:DMSO, and Tubastatin A:DMSO. A cut-off of 1.30 fold of change (increase or decrease) was then used to determine “changed” or “+” in the table, and any peptides with a fold of change less than 1.3 fold were determined to be “unchanged” or “0” in the table. Those peptides that were not identified were marked as “NA” in the table. […]

O=C(NO)c1cnc(NC2(c3cccc(F)c3)CCCCC2)nc1 [Compound B, 2-((1-(3-fluorophenyl)cyclohexyl)amino)-N-hydroxypyrimidine-5-carboxamide]
light to heavy ratio (L/H ratio) of acetylated peptide SEVDMLK(ac)IR (SEQ ID NO: 295) (Putative annexin A2-like protein [302], ANXA2P2, drug:DMSO): 0.00 log 2
light to heavy ratio (L/H ratio) of acetylated peptide K(ac)[…] (SEQ ID NO: 358) (Putative annexin A2-like protein [310], ANXA2P2, drug:DMSO): 0.66 log 2
L/H ratio of acetylated peptide (QLNDVK(ac)[…] (SEQ ID NO: 386), Scavenger mRNA-decapping enzyme DcpS [128], DCPS): 0.97 log 2
L/H ratio of acetylated peptide EIDSVK(ac)[…] (SEQ ID NO: 73) (RAC2 [153], log 2 scale, drug vs DMSO): 0.00
light to heavy ratio (L/H ratio) of acetylated peptide, log 2 scale (RPAVK(ac)QFHDSK (SEQ ID NO: 203), 60S ribosomal protein L18a [143], RPL18A): 0.00
L/H ratio of acetylated peptide FIDTTSK(ac)FGHGR (SEQ ID NO: 83) (RPL3L [373], log 2 scale, drug vs DMSO): 0.00
L/H ratio of acetylated peptide AASLK(ac)SNYNLPMHK (SEQ ID NO: 84) (RPL4 [274], log 2 scale, drug vs DMSO): 0.00
L/H ratio of acetylated peptide NFLGEK(ac)YIR (SEQ ID NO: 86) (RPL9 [121], log 2 scale, drug vs DMSO): 0.00
L/H ratio of acetylated peptide […](ac)SR (SEQ ID NO: 79) (RPL18A [41], log 2 scale, drug vs DMSO): 0.00
L/H ratio of acetylated peptide YLK(ac)YLTK (SEQ ID NO: 81) (RPL22 [84], log 2 scale, drug vs DMSO): 0.00
L/H ratio of acetylated peptide INFDK(ac)YHPGYFGK (SEQ ID NO: 82) (RPL27A [47], log 2 scale, drug vs DMSO): 0.00
L/H ratio of acetylated peptide LK(ac)[…] (SEQ ID NO: 89) (RPS4X [53], log 2 scale, drug vs DMSO): 0.00
L/H ratio of acetylated peptide SFQK(ac)IQVR (SEQ ID NO: 90) (RPS7 [74], log 2 scale, drug vs DMSO): 0.00
L/H ratio of acetylated peptide […](ac)GK (SEQ ID NO: 87) (RPS23 [135], log 2 scale, drug vs DMSO): 0.00
L/H ratio of acetylated peptide LAVLK(ac)YYK (SEQ ID NO: 88) (RPS27A [104], log 2 scale, drug vs DMSO): 0.00
light to heavy ratio (L/H ratio) of acetylated peptide […](ac)YK (SEQ ID NO: 360) (Rho GDP-dissociation inhibitor 2 [47], ARHGDIB, drug:DMSO): 0.60 log 2
light to heavy ratio (L/H ratio) of acetylated peptide […](ac)R (SEQ ID NO: 334) (S1 IF1 type family protein [56], EIF1AXP1, drug:DMSO): −0.40 log 2
L/H ratio of acetylated peptide LAELK(ac)QECLAR (SEQ ID NO: 94) (SARNP 17], log 2 scale, drug vs DMSO): 0.00
L/H ratio of acetylated peptide (ac)ATETVELHK(ac)LK (SEQ ID NO: 93) (SARNP [10], log 2 scale, drug vs DMSO): 0.00
L/H ratio of acetylated peptide (SELEFK(ac)FNR (SEQ ID NO: 422), Sialic acid synthase [61], NANS): 0.53 log 2
L/H ratio of acetylated peptide EHTALLK(ac)IEGVYAR (SEQ ID NO: 630, 60S ribosomal protein L35a [29], RPL35A): 0.00 log 2
L/H ratio of acetylated peptide NDEELNK(ac)LLGR (SEQ ID NO: 634, Histone H2A type 1-B/E [96], HIST1H2AE, HIST1H2AB, HIST1H2AD, HIST1H2AG, HIST1H2AK, HIST1H2AL, HIST1H2AM, HIST1H2AJ, HIST1H2AI): 0.00 log 2
L/H ratio of acetylated peptide TFK(ac)[…] (SEQ ID NO: 636, 60S ribosomal protein L3 [103], SNORD43, RPL3): 0.00 log 2
L/H ratio of acetylated peptide YK(ac)[…] (SEQ ID NO: 637, Protein disulfide-isomerase [328], P4HB): 0.00 log 2
L/H ratio of acetylated peptide NAEK(ac)YAEEDRR (SEQ ID NO: 638, Stress-70 protein mitochondrial [567], HSPA9): 0.00 log 2
L/H ratio of acetylated peptide […](ac)DR (SEQ ID NO: 639, pyruvate dehydrogenase E1 component subunit alpha somatic form mitochondrial isoform 2 precursor [359], PDHA1): 0.00 log 2
L/H ratio of acetylated peptide VEYFLK(ac)WK (SEQ ID NO: 645, Chromobox protein homolog 3 [50], CBX3): 0.00 log 2
L/H ratio of acetylated peptide HYK(ac)TDFDK (SEQ ID NO: 646, Isocitrate dehydrogenase [NADP] mitochondrial [275], IDH2): 0.00 log 2
L/H ratio of acetylated peptide EGYAWAEDK(ac)EHCEEYGR (SEQ ID NO: 647, tRNA-splicing ligase RtcB homolog [190], C22orf28): 0.00 log 2
L/H ratio of acetylated peptide […](ac)QNK (SEQ ID NO: 650, Dihydrolipoyl dehydrogenase mitochondrial [143], DLD): 0.00 log 2
L/H ratio of acetylated peptide FYVK(ac)DHR (SEQ ID NO: 651, CDGSH iron-sulfur domain-containing protein 1 [37], CISD1): 0.00 log 2
L/H ratio of acetylated peptide HIVK(ac)EFK (SEQ ID NO: 653, Stress-70 protein mitochondrial [288], HSPA9): 0.00 log 2
L/H ratio of acetylated peptide MYKEEGLK(ac)AFYK (SEQ ID NO: 654, Isoform A of Phosphate carrier protein mitochondrial [214], SLC25A3): 0.00 log 2
L/H ratio of acetylated peptide […](ac)EFR (SEQ ID NO: 657, Isoform 1 of Clathrin heavy chain 1 [1264], CLTC): 0.00 log 2
L/H ratio of acetylated peptide YELTGK(ac)FER (SEQ ID NO: 659, Annexin A6 [81], ANXA6): 0.00 log 2
L/H ratio of acetylated peptide LAMVK(ac)AEPDVK (SEQ ID NO: 661, NADH dehydrogenase [ubiquinone] 1 alpha subcomplex subunit 5 [60], NDUFA5): 0.00 log 2
L/H ratio of acetylated peptide NEK(ac)LFYR (SEQ ID NO: 662, NADP-dependent malic enzyme mitochondrial [119], ME3): 0.00 log 2
L/H ratio of acetylated peptide DLSLDDFK(ac)GK (SEQ ID NO: 664, Thioredoxin-dependent peroxide reductase mitochondrial [91], PRDX3): 0.00 log 2
L/H ratio of acetylated peptide LTSDDVK(ac)EQIYK (SEQ ID NO: 669, 40S ribosomal protein S13 [34], RPS13): 0.00 log 2
L/H ratio of acetylated peptide SCNCLLLK(ac)[…] (SEQ ID NO: 670, Isoform alpha-enolase of Alpha-enolase [343], ENO1): 0.00 log 2
L/H ratio of acetylated peptide […](ac)FLIK (SEQ ID NO: 671, Methyltransferase-like protein 7A [105], METTL7A): 0.00 log 2
L/H ratio of acetylated peptide […](ac)QLK (SEQ ID NO: 672, Annexin A6 [442], ANXA6): 0.00 log 2
L/H ratio of acetylated peptide LENDK(ac)SFR (SEQ ID NO: 678, Isoform 1 of Enoyl-CoA delta isomerase 1 mitochondrial [89], ECI1): 0.00 log 2
L/H ratio of acetylated peptide LVAMK(ac)FLR (SEQ ID NO: 679, Isoform 1 of Nucleoside diphosphate kinase B [39], NME1, NME2, NME1-NME2): 0.00 log 2
L/H ratio of acetylated peptide SGK(ac)YDLDFK (SEQ ID NO: 688, Isoform alpha-enolase of Alpha-enolase [256], ENO1): 0.00 log 2
L/H ratio of acetylated peptide LYGDLK(ac)HLK (SEQ ID NO: 689, cDNA FLJ61478 highly similar to Succinate dehydrogenase (ubiquinone) flavoprotein subunit mitochondrial [547], SDHA): 0.00 log 2
L/H ratio of acetylated peptide TISAK(ac)YAEER (SEQ ID NO: 692, Isoform 1 of Myosin-9 [1459], MYH9): 0.00 log 2
L/H ratio of acetylated peptide (ac)ASNK(ac)TTLQK (SEQ ID NO: 693, Chromobox protein homolog 3 [5], CBX3): 0.00 log 2
L/H ratio of acetylated peptide KAVTK(ac)VQK (SEQ ID NO: 699, Histone H2B type 2-F [21], HIST2H2BF): 0.00 log 2
L/H ratio of acetylated peptide ILQK(ac)QGFK (SEQ ID NO: 700, Dihydrolipoyl dehydrogenase mitochondrial [267], DLD): 0.00 log 2
L/H ratio of acetylated peptide NK(ac)FGAPQK (SEQ ID NO: 701, Trifunctional enzyme subunit alpha mitochondrial [353], HADHA): 0.00 log 2
L/H ratio of acetylated peptide VTAVHK(ac)ANIMK (SEQ ID NO: 702, Isocitrate dehydrogenase [NAD] subunit gamma mitochondrial [221], IDH3G): 0.00 log 2
L/H ratio of acetylated peptide ACPEK(ac)HFAFK (SEQ ID NO: 703, Protein FAM3C [67], FAM3C): 0.00 log 2
L/H ratio of acetylated peptide QLAQK(ac)YNCDK (SEQ ID NO: 705, Ubiquitin-60S ribosomal protein L40 [88], UBA52): 0.00 log 2
L/H ratio of acetylated peptide […](ac)EDVK (SEQ ID NO: 706, Isoform 1 of ATP synthase subunit d mitochondrial [95], ATP5H): 0.00 log 2
L/H ratio of acetylated peptide ADK(ac)LAEEHSS (SEQ ID NO: 708, ATP synthase subunit beta mitochondrial [522], ATP5B): 0.00 log 2
L/H ratio of acetylated peptide DFGSFDK(ac)FK (SEQ ID NO: 709, Superoxide dismutase [Mn] mitochondrial [130], SOD2): 0.00 log 2
L/H ratio of acetylated peptide CSK(ac)LPSSTK(ac)SGWPR (SEQ ID NO: 711, cDNA FLJ75110 highly similar to Homo sapiens PHD finger protein 15 (PHF15) mRNA 3[2:38], PHF15): 0.00 log 2
L/H ratio of acetylated peptide KAINK(ac)AQK (SEQ ID NO: 712, Histone H2B type 1-M [21], HIST1H2BM): 0.00 log 2
L/H ratio of acetylated peptide TDLEK(ac)[…] (SEQ ID NO: 714, Putative annexin A2-like protein [157], ANXA2P2): 0.00 log 2
L/H ratio of acetylated peptide KGIEK(ac)NLGIGK (SEQ ID NO: 718, Malate dehydrogenase mitochondrial [301], MDH2): 0.00 log 2
L/H ratio of acetylated peptide QLYNIYAK(ac)HTK (SEQ ID NO: 720, Putative ATP-dependent Clp protease proteolytic subunit mitochondrial [211], CLPP): 0.00 log 2
L/H ratio of acetylated peptide GKGDK(ac)AQIEK (SEQ ID NO: 721, 60 kDa heat shock protein mitochondrial [364], HSPD1): 0.00 log 2
L/H ratio of acetylated peptide K(ac)FLVHNVK (SEQ ID NO: 722, 60S ribosomal protein L32 [76], RPL32): 0.00 log 2
